Laboratory results as given in patent publication US9137996B2, “Fungicidal alkyl- and aryl-substituted 2[-2-chloro-4-(dihalo-phenoxy)-phenyl]-1-[1,2,4]triazol-1-yl-ethanol compounds” (BASF SE, priority 2011, dated 2015).

Test system: Phakopsora pachyrhizi
Experiment: Protective control of soy bean rust on soy beans (Phakpa P1), green house
Type: in vivo, Phakopsora pachyrhizi on soy bean seedlings
Settings: 300 ppm active substance, sprayed 1 day before inoculation, assessed after fourteen days; untreated plants 90% infected
Procedure: The spray solutions were prepared in several steps:
The stock solution were prepared: a mixture of acetone and/or dimethylsulfoxide and the wetting agent/emulsifier Wettol, which is based on ethoxylated alkylphenoles, in a relation (volume) solvent-emulsifier of 99 to 1 was added to 25 mg of the compound to give a total of 5 ml. Water was then added to total volume of 100 ml. This stock solution was diluted with the described solvent-emulsifier-water mixture to the given concentration. 1. Protective control of soy bean rust on soy beans caused by Phakopsora pachyrhizi (Phakpa P1)
Leaves of pot-grown soy bean seedlings were sprayed to run-off with an aqueous suspension, containing the concentration of active ingredient or their mixture as described below. The plants were allowed to air-dry. The trial plants were cultivated for 1 day in a greenhouse chamber at 23-27° C. and a relative humidity between 60 and 80%.Then the plants were inoculated with spores of Phakopsora pachyrhizi. To ensure the success the artificial inoculation, the plants were transferred to a humid chamber with a relative humidity of about 95% and 20 to 24 C for 24 h. The trial plants were cultivated for fourteen days in a greenhouse chamber at 23-27° C. and a relative humidity between 60 and 80%. The extent of fungal attack on the leaves was visually assessed as % diseased leaf area.

SMILES: CC(O)(Cn1cncn1)c1ccc(Oc2ccc(Cl)cc2Cl)cc1Cl (stereo not shown) [I-1, 2-[2-chloro-4-(2,4-dichlorophenoxy)phenyl]-1-(1,2,4-triazol-1-yl)propan-2-ol]
- infection (extent of fungal attack, % diseased leaf area): 10%
